Measurements reported in patent US20230357241A1, “1H-PYRROLO[2,3-C]PYRIDINE COMPOUNDS AND APPLICATION THEREOF” (MEDSHINE DISCOVERY INC., priority 2020, published 2023).
Counter-ions that a name gives are not always drawn.

How the values were obtained:
CYP1A2 = CYP1A2 (Homo sapiens (Human), UniProt P05177); assay: Cytochrome enzyme inhibition study, CYP1A2; format: in vitro ADME; details: human liver microsomes, mixed probe substrate; read-out: CYP inhibition (IC50, μM) 1A2
Description: (§1) A mixed probe substrate of CYP isoenzymes were used to evaluate the inhibitory effect of test compounds on human liver microsomal cytochrome P450 isoenzymes (CYP1A2, CYP2C9, CYP2C19, CYP2D6 and CYP3A4). The test compounds were prepared into 10 mM stock solutions with DMSO. A 178 μL solution of human liver microsome and substrate mixture was added to the non-inhibitor control (NIC) and test compound wells of the reaction plate and the reaction was then placed on ice. 2 μL of blank solvent and test compound working solution were taken from the dilution plate, and added to the reaction plate (at final concentrations of 0.05-50 μM). The reaction plate was prewarmed in a 37±0.2° C. water bath for 10 min. 20 μL of the cofactor solution was taken by a liquid treatment workstation and added into the reaction plate to initiate the reaction. After 10 min, 400 μL of terminating solution was added to the reaction plate to terminate the reaction, and the reaction plate was incubated on ice for 5 min. […] The peak areas of the substrate and the product were detected by liquid chromatography-mass spectrometer (LC/MS/MS). […] The peak area ratio of the metabolite generated by the probe substrate to the internal standard was determined by liquid chromatography-mass spectrometer (LC-MS/MS). […] IC50 values were calculated by a three-parameter or four-parameter sigmoidal logarithmic equation. […]

CYP2C9 = CYP2C9 (Homo sapiens (Human), UniProt P11712); assay: Cytochrome enzyme inhibition study, CYP2C9; format: in vitro ADME; details: human liver microsomes, mixed probe substrate; read-out: CYP inhibition (IC50, μM) 2C9
CYP2C9, sequence (P11712 whole entry): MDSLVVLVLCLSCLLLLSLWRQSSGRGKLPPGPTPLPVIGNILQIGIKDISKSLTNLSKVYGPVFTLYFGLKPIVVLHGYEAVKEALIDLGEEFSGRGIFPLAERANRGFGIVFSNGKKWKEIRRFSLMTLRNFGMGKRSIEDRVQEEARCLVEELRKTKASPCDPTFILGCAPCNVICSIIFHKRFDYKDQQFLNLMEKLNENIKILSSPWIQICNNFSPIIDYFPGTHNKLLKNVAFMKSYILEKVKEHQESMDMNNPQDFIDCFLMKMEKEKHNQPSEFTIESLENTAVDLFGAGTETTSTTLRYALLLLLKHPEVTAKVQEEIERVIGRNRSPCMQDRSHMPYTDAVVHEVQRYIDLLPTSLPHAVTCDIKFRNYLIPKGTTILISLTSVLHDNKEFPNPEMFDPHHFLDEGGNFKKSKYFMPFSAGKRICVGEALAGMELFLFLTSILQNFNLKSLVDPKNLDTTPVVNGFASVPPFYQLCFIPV
Description: as §1

CYP2C19 = CYP2C19 (Homo sapiens (Human), UniProt P33261); assay: Cytochrome enzyme inhibition study, CYP2C19; format: in vitro ADME; details: human liver microsomes, mixed probe substrate; read-out: CYP inhibition (IC50, μM) 2C19
CYP2C19, sequence (P33261 whole entry): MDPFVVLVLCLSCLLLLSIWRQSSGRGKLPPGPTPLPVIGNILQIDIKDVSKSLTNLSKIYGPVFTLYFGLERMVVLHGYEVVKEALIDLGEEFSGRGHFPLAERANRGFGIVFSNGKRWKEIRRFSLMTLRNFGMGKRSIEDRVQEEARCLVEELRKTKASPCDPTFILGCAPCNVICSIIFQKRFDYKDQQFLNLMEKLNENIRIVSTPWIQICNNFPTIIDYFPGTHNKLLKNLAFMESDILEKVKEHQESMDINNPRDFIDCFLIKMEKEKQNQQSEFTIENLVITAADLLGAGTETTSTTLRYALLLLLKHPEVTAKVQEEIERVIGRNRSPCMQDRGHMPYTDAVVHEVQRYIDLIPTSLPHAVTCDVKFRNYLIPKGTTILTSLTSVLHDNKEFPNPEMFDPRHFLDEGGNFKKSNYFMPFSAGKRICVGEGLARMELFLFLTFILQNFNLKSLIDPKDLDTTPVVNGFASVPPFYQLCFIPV
Description: as §1

CYP2D6 = CYP2D6 (Homo sapiens (Human), UniProt P10635); assay: Cytochrome enzyme inhibition study, CYP2D6; format: in vitro ADME; details: human liver microsomes, mixed probe substrate; read-out: CYP inhibition (IC50, μM) 2D6
CYP2D6, sequence (P10635 whole entry): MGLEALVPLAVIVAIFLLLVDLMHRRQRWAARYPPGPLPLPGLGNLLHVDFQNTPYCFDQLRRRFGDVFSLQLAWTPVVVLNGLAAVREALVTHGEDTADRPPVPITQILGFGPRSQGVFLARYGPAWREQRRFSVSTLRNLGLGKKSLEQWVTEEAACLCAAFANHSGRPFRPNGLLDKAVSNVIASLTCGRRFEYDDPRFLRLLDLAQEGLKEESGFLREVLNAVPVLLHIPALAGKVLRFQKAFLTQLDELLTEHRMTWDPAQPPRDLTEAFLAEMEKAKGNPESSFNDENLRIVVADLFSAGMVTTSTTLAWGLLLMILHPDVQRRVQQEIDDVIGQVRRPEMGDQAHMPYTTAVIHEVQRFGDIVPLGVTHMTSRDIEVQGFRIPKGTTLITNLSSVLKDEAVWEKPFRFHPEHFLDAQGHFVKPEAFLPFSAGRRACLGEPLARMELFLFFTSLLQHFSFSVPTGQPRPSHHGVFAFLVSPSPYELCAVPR
Description: as §1

CYP3A4 = CYP3A4 (Homo sapiens (Human), UniProt P08684); assay: Cytochrome enzyme inhibition study, CYP3A4; format: in vitro ADME; details: human liver microsomes, mixed probe substrate; read-out: CYP inhibition (IC50, μM) 3A4
CYP3A4, sequence (P08684 whole entry): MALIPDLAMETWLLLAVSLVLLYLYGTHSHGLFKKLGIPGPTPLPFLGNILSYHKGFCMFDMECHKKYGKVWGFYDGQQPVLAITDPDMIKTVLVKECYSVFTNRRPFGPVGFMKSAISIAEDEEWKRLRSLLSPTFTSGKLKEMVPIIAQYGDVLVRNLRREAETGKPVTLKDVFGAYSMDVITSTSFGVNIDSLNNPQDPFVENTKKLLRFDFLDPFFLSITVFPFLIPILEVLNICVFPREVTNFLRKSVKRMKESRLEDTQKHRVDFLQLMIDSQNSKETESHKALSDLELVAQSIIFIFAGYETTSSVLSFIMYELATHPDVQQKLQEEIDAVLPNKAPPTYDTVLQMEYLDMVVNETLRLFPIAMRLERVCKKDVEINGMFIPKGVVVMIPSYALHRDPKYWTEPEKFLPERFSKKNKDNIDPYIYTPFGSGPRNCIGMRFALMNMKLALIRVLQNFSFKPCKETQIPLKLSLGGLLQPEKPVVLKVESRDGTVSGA
Description: as §1

[1] = Pharmacokinetic study in mice; format: in vivo, male C57BL/6J mice; details: male, C57BL/6J, plasma, mouse
From the text: (§2) This study was intended to explore the pharmacokinetics of the test compound in the plasma of male C57BL/6J mice and SD rats after intravenous and oral administrations.
(§3) The animals were randomized into two groups of 3 male animals. The compounds were formulated as designated (vehicle: 0.5% MC), i.e., clear solutions for intravenous injection and clear or homogeneous suspensions for oral formulations.
(§4) Animal whole blood samples were collected by jugular vein puncture or from saphenous vein at 5 min, 15 min and 30 min and 1 h, 2 h, 4 h, 6 h and 8 h post-dose. The whole blood samples were added to centrifuge tubes containing anticoagulant and centrifuged at 4° C., 3000 g for 15 min. The plasma supernatant was taken and quickly frozen on dry ice and stored in a freezer at −70±10° C. before LC-MS/MS analysis.
(§5) Plasma drug concentration data for compounds were processed in a non-compartmental model using WinNonlin™ Version 6.3.0 (Pharsight, Mountain View, CA) pharmacokinetic software. Peak concentration (Cmax) and time to peak (Tmax) and time of the last quantifiable concentration were directly obtained from the plasma concentration-time curve.
(§6) The following pharmacokinetic parameters were calculated using the log-linear trapezoidal method: plasma clearance (CL), volume of distribution (Vd), elimination phase half-life (T1/2), mean retention time of the compound from point 0 to the last time point (MRT0-last), mean retention time of the compound from point 0 to infinite (MRT0-inf), area under the time-plasma concentration curve from point 0 to the last time point (AUC0-last), area under the time-plasma concentration curve from point 0 to infinite (AUC0-inf) and bioavailability (F).

[2] = Pharmacokinetic study in rats; format: in vivo; details: male, SD, plasma, rat
From the text: as §2, §3, §4, §5, §6

CSF-1R = CSF-1R (Homo sapiens (Human), UniProt P07333); assay: In vitro enzymatic inhibitory activity, CSF-1R kinase (33P-ATP filter-binding); format: biochemical; details: CSF-1R 2.5 nM, 2 h room temperature
CSF-1R, sequence (P07333 20-972): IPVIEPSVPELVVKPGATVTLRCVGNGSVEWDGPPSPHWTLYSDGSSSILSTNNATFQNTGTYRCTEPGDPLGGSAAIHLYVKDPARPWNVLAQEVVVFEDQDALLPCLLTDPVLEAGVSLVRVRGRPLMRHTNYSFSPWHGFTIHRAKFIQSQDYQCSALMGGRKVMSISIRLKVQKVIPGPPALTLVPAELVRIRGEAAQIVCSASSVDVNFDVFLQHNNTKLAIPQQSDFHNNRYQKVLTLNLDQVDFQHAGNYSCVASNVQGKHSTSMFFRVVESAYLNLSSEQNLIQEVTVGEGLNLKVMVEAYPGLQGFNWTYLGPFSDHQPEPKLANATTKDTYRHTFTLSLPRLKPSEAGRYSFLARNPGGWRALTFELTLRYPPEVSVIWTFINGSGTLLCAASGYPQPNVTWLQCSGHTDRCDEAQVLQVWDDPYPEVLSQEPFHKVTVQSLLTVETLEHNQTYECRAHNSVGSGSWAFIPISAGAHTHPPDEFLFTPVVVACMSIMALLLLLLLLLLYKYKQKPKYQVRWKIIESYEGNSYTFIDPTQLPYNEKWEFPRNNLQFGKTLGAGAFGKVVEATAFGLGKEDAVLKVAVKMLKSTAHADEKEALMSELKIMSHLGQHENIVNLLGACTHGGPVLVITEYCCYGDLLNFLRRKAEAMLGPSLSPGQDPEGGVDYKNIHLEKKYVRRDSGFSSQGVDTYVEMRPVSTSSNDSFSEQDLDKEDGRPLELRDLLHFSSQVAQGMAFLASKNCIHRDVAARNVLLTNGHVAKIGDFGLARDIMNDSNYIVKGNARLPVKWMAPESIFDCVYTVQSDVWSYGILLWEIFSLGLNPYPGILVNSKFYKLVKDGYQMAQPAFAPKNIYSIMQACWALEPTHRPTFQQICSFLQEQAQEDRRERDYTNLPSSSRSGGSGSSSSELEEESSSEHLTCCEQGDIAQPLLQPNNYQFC
Description: Basic reaction buffer: 20 mM hydroxyethylpiperazine ethane sulfonic acid (pH 7.5), 10 mM magnesium chloride, 1 mM EGTA, 0.02% Brij35, 0.02 mg/mL bovine serum albumin, 0.1 mM
Na3VO4, 2 mM DTT, 1% DMSO
Necessary cofactors were separately added to the CSF-1R kinase reaction.
The test compounds were prepared into solutions of specified concentrations in 100% DMSO, and the solutions were serially diluted in DMSO using the Integra Viaflo Assist.
1. A fresh medium preparation reaction buffer was prepared;
2. All necessary cofactors were added to the reaction buffer described above;
3. The kinase was added into the medium solution and the mixture was shaked gently;
4. Solutions of the compounds in DMSO were added to the kinase reaction mixture using an acoustic technique (Echo550; in nanoliter range), and the system was incubated at room temperature for 20 min;
5. ^33P-ATP (specific activity: 10 μCi/μL) was added to the reaction mixture to initiate the reaction;
6. The mixture was incubated for 2 h at room temperature;
7. The kinase activity was detected by a filter-binding method;
8. The kinase activity IC50 values and the curves were obtained by comparison with the other kinases and the vehicle (DMSO) group using Prism (GraphPad software).

MDR1-MDCK = assay: Permeability study (MDR1-MDCK), bi-directional transport; format: in vitro ADME; details: conclusion in words
[3] = test system: Ba/F3-TEL-CSF1R cell in situ graft tumor; assay: In vivo pharmacodynamic study, Ba/F3-TEL-CSF1R cell in situ graft tumor model (splenomegaly); parameters: species or system nu/nu mice; details: for efficacy in TEL-CSF1R-BaF3 cell splenomegaly assay: p.o., QD
Description: The in vivo efficacy of compound 1 hydrochloride on Ba/F3-TEL-CSF1R cell in situ graft tumor model was evaluated.
• Cell culture: Ba/F3-TEL-CSF1R cells were cultured in 1640 medium (Biological Industries)+10% fetal bovine serum (BI)+1% dual antibiotic solution (Penicilin Streptomycin Solution, Coring, USA) at 37° C. at 5% CO2 and passaged twice a week. When the saturation reached 80%-90% and met the requirement, the cells were collected, counted and grafted. • Animals: 28 nu/nu mice, female, aged 6-8 weeks, 18-22 g, supplied by Beijing Vital River Laboratory Animal Technology Co., Ltd. • Tumor grafting: 0.2 mL of Ba/F3-TEL-CSF1R cell suspension (2×10^6 cells) was grafted into each mouse through tail vein injection, and the mice were randomized by weight on day 10. • Grouping and dosing regimens
The animals were housed in SPF animal rooms in independent cages with air supply, and each cage contained no more than 5 animals. • ? Temperature: 20-26° C. • ? Humidity: 35%-75% • ? Illumination: 12 h/12 h light/darkness cycle • ? Corn core padding, changed once a week • ? […] Labeling: ear cutting. • Grouping: The subcutaneous tumor-bearing state was observed every day after grafting; the body weight and tumor volume were measured before grouping, and the mice were randomized according to the data. • Observation: The drafting and any modification of the protocol were approved by the Ethics
Committee of Laboratory Animal Welfare of Precision Preceding Do Co., Ltd. (Hefei, China). Animals were monitored daily for health and mortality, including, for example, tumor growth, mobility, diet, weight, eye, hair and other abnormal behaviors, appearance, signs or other abnormalities. The numbers of deaths and adverse events in the groups were recorded based on the number of animals. • Parameters: The body weights were measured and animal survival rate observed daily; at the end of the study (4 h after the last dose), the mice were euthanized and the spleen and liver were collected, weighed and photographed. • The results are shown in FIG. 1.

CYP1A2, sequence (P05177 whole entry): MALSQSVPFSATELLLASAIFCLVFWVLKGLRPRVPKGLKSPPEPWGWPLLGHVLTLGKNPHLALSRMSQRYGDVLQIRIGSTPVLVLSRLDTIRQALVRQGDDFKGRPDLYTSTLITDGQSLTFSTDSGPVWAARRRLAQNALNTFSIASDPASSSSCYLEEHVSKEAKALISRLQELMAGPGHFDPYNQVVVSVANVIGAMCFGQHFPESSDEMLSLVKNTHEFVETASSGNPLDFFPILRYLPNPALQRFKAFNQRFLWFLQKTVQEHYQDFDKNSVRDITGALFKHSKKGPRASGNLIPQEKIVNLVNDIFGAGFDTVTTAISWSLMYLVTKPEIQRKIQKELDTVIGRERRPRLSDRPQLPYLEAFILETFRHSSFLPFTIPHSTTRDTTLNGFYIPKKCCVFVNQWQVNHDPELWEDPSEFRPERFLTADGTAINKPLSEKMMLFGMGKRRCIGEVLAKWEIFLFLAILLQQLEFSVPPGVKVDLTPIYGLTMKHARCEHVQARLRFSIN

Cl.FC(F)(F)c1ccc(CNc2ccc(Cc3c[nH]c4ncc(Cl)cc34)cn2)cn1 [PLX-3397, Pexidartinib, reference compound] showed an IC50 (CYP1A2) of 24 µM, an IC50 (CYP2C9) of 3.81 µM and an IC50 (CYP2C19) of 8.32 µM. The IC50 (CYP2D6) was 8.77 µM, the IC50 (CYP3A4) was > 35.6 µM and the AUC(0-t) ([1]; 1 mg/kg, IV, 1 mpk) was 29 µM·h. It also gave a Vd ([1]; 1 mg/kg, IV, 1 mpk) of 0.265 L/kg, a clearance ([1]; 1 mg/kg, IV, 1 mpk) of 0.927 mL/min/kg and a half-life ([1]; 1 mg/kg, IV, 1 mpk) of 3.33 h. For the same compound, the AUC(0-t) ([1]; 10 mg/kg, PO, 10 mpk) was 131 µM·h, the Cmax ([1]; 10 mg/kg, PO, 10 mpk) was 17.2 µM and the Tmax ([1]; 10 mg/kg, PO, 10 mpk) was 4 h. The bioavailability ([1]; 10 mg/kg, PO, 10 mpk) was 74.1%, the AUC(0-t) ([2]; 1 mg/kg, IV, 1 mpk) was 8.49 µM·h and the Vd ([2]; 1 mg/kg, IV, 1 mpk) was 0.613 L/kg. For the same compound, the clearance ([2]; 1 mg/kg, IV, 1 mpk) was 4.64 mL/min/kg, the half-life ([2]; 1 mg/kg, IV, 1 mpk) was 1.27 h and the AUC(0-t) ([2]; 10 mg/kg, PO, 10 mpk) was 70.2 µM·h. For the same compound, the Cmax ([2]; 10 mg/kg, PO, 10 mpk) was 10.7 µM, the Tmax ([2]; 10 mg/kg, PO, 10 mpk) was 1.5 h and the bioavailability ([2]; 10 mg/kg, PO, 10 mpk) was 81%.
Work on CNC(=O)c1nccc2c(-c3cnc(Nc4ccc(OC)nc4)cc3C)c[nH]c12 [Compound 7 hydrochloride] yielded an IC50 (CSF-1R) of 26 nM.
Compound CNC(=O)c1nccc2c(-c3cnc(Nc4ccc(C)nc4)cc3C)c[nH]c12 [Compound 6 hydrochloride] has an IC50 (CSF-1R) of 30 nM.
For CNC(=O)c1nccc2c(-c3cnc(Nc4ccc(OC)cc4)cc3C)c[nH]c12 [Compound 8 hydrochloride], the IC50 (CSF-1R) was 10 nM.
In the case of CNC(=O)c1nccc2c(-c3cnc(Nc4ccc(OC5CC5)nc4)cc3C)c[nH]c12 [Compound 1 hydrochloride], the IC50 (CSF-1R) is reported as 1.13 nM, the “permeability compared with PLX-3397” value (MDR1-MDCK) is reported as “higher than that of PLX-3397” and the IC50 (CYP1A2) is reported as > 50 µM. For the same compound, the IC50 (CYP2C9) was 11.6 µM, the IC50 (CYP2C19) was 21 µM and the IC50 (CYP2D6) was > 50 µM. The IC50 (CYP3A4) was 28 µM, the AUC(0-t) ([1]; 1 mg/kg, IV, 1 mpk) was 168 µM·h and the Vd ([1]; 1 mg/kg, IV, 1 mpk) was 0.15 L/kg. The clearance ([1]; 1 mg/kg, IV, 1 mpk) was 0.2 mL/min/kg, the half-life ([1]; 1 mg/kg, IV, 1 mpk) was 8.62 h and the AUC(0-t) ([1]; 10 mg/kg, PO, 10 mpk) was 1650 µM·h. It also gave a Cmax ([1]; 10 mg/kg, PO, 10 mpk) of 117 µM, a Tmax ([1]; 10 mg/kg, PO, 10 mpk) of 3 h and a bioavailability ([1]; 10 mg/kg, PO, 10 mpk) of 98%. It also gave an AUC(0-t) ([2]; 1 mg/kg, IV, 1 mpk) of 66 µM·h, a Vd ([2]; 1 mg/kg, IV, 1 mpk) of 0.2 L/kg and a clearance ([2]; 1 mg/kg, IV, 1 mpk) of 0.61 mL/min/kg. For the same compound, the half-life ([2]; 1 mg/kg, IV, 1 mpk) was 3.4 h, the AUC(0-t) ([2]; 3 mg/kg, PO, 3 mpk) was 249 µM·h and the Cmax ([2]; 3 mg/kg, PO, 3 mpk) was 27.4 µM. The Tmax ([2]; 3 mg/kg, PO, 3 mpk) was 2 h, the bioavailability ([2]; 3 mg/kg, PO, 3 mpk) was 129% and the “efficacy in TEL-CSF1R-BaF3 cell splenomegaly assay” value ([3]; 1 mpk, comparable to PLX-3397 (10 mg/kg)) was “significant efficacy”. The “efficacy in TEL-CSF1R-BaF3 cell splenomegaly assay” value ([3]; 10 mpk) was “significant advantage” and the “dose-dependence in TEL-CSF1R-BaF3 cell splenomegaly assay” value ([3]; high, medium and low doses (10, 3, 1 mg/kg p.o. QD)) was “clear dose-dependence”.
In the case of CNC(=O)c1nccc2c(-c3cnc(Nc4ccc(OC(C)C)cc4)cc3C)c[nH]c12 [Compound 3 hydrochloride], the IC50 (CSF-1R) is reported as 34 nM.
CNC(=O)c1nccc2c(-c3cnc(Nc4ccc(OC5CC5)nc4)cc3C)cn(C)c12 [Compound 2 hydrochloride] showed an IC50 (CSF-1R) of 26.8 nM.
